According to ChEMBL document CHEMBL1201861, “Genomics of Drug Sensitity in Cancer screening data, Wellcome Trust Sanger Institute”:

Experiments:
Assay in all cases: cells
MZ2-MEL = format: functional, cell-based, Homo sapiens; conditions: Homo sapiens, MZ2-MEL;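 also: growth inhibition of MZ2-MEL cells read out with a cell viability assay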
Description: SANGER: Inhibition of human MZ2-MEL cell growth in a cell viability assay.

HCC2157 = format: functional, cell-based, Homo sapiens; conditions: Homo sapiens, HCC2157;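 also: growth inhibition of the cancer cell line, read out as cell viability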
Description: SANGER: Inhibition of human HCC2157 cell growth in a cell viability assay.

NCI-H1838 = format: functional, cell-based, Homo sapiens; conditions: Homo sapiens, NCI-H1838;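 also: growth inhibition of NCI-H1838 cells, determined with a cell viability readout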
Description: SANGER: Inhibition of human NCI-H1838 cell growth in a cell viability assay.

SK-MEL-2 = format: functional, cell-based, Homo sapiens; conditions: Homo sapiens, SK-MEL-2;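 also: growth inhibition of human SK-MEL-2 cells measured with a cell viability assay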
Description: SANGER: Inhibition of human SK-MEL-2 cell growth in a cell viability assay.

J-RT3-T3-5 = format: functional, cell-based, Homo sapiens; conditions: Homo sapiens, J-RT3-T3-5;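 also: cell viability assay measuring growth inhibition of human J-RT3-T3-5 cells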
Description: SANGER: Inhibition of human J-RT3-T3-5 cell growth in a cell viability assay.

SHP77 = format: functional, cell-based, Homo sapiens, SHP-77; conditions: Homo sapiens, SHP77;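 also: growth inhibition of human SHP-77 cells measured by a cell viability assay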
Description: SANGER: Inhibition of human SHP-77 cell growth in a cell viability assay.

NCI-H2126 = format: functional, cell-based, Homo sapiens; conditions: Homo sapiens, NCI-H2126;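 also: growth inhibition of the cancer cell line, determined with a cell viability readout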
Description: SANGER: Inhibition of human NCI-H2126 cell growth in a cell viability assay.

NCI-N87 = format: functional, cell-based, Homo sapiens; conditions: Homo sapiens, NCI-N87;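 also: growth inhibition of human NCI-N87 cells, read out with a cell viability assay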
Description: SANGER: Inhibition of human NCI-N87 cell growth in a cell viability assay.

UACC-257 = format: functional, cell-based, Homo sapiens; conditions: Homo sapiens, UACC-257
Description: SANGER: Inhibition of human UACC-257 cell growth in a cell viability assay.

NB12 = format: functional, cell-based, Homo sapiens; conditions: Homo sapiens, NB12;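 also: growth inhibition of human NB12 cells, read out by a cell viability assay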
Description: SANGER: Inhibition of human NB12 cell growth in a cell viability assay.

SJSA-1 = format: functional, cell-based, Homo sapiens; conditions: Homo sapiens, SJSA-1;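 also: growth inhibition of human SJSA-1 cells, read out through a cell viability measurement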
Description: SANGER: Inhibition of human SJSA-1 cell growth in a cell viability assay.

SK-UT-1 = format: functional, cell-based, Homo sapiens; conditions: Homo sapiens, SK-UT-1;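 also: growth inhibition of SK-UT-1 cells, measured by a cell viability assay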
Description: SANGER: Inhibition of human SK-UT-1 cell growth in a cell viability assay.

SH-4 = format: functional, cell-based, Homo sapiens; conditions: Homo sapiens, SH-4;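 also: growth inhibition of SH-4 cells, read out with a cell viability assay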
Description: SANGER: Inhibition of human SH-4 cell growth in a cell viability assay.

DJM-1 = format: functional, cell-based, Homo sapiens; conditions: Homo sapiens, DJM-1;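 also: growth inhibition of human DJM-1 cells, read out by a cell viability assay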
Description: SANGER: Inhibition of human DJM-1 cell growth in a cell viability assay.

SBC-1 = format: functional, cell-based, Homo sapiens; conditions: Homo sapiens, SBC-1;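 also: cell viability assay measuring growth inhibition of the SBC-1 cell line, IC50 being the concentration that halves growth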
Description: SANGER: Inhibition of human SBC-1 cell growth in a cell viability assay.

A101D = format: functional, cell-based, Homo sapiens; conditions: Homo sapiens, A101D;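 also: growth inhibition of the cell line, measured with a viability assay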
Description: SANGER: Inhibition of human A101D cell growth in a cell viability assay.

MFM-223 = format: functional, cell-based, Homo sapiens; conditions: Homo sapiens, MFM-223
Description: SANGER: Inhibition of human MFM-223 cell growth in a cell viability assay.

SW 962 = format: functional, cell-based, Homo sapiens; conditions: Homo sapiens, SW 962;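 also: growth inhibition of human SW962 cells, read out by a cell viability assay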
Description: SANGER: Inhibition of human SW962 cell growth in a cell viability assay.

LB831-BLC = format: functional, cell-based, Homo sapiens; conditions: Homo sapiens, LB831-BLC;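 also: growth inhibition of LB831-BLC cells, read out with a cell viability assay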
Description: SANGER: Inhibition of human LB831-BLC cell growth in a cell viability assay.

A4-Fuk = format: functional, cell-based, Homo sapiens; conditions: Homo sapiens, A4-Fuk;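 also: growth inhibition of A4-Fuk cells, read out by a cell viability assay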
Description: SANGER: Inhibition of human A4-Fuk cell growth in a cell viability assay.

NCI-H1770 = format: functional, cell-based, Homo sapiens; conditions: Homo sapiens, NCI-H1770;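 also: growth inhibition of NCI-H1770 cells determined with a viability readout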
Description: SANGER: Inhibition of human NCI-H1770 cell growth in a cell viability assay.

AM-38 = format: functional, cell-based, Homo sapiens; conditions: Homo sapiens, AM-38;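 also: growth inhibition of AM-38 cells of human origin, read out by a cell viability assay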
Description: SANGER: Inhibition of human AM-38 cell growth in a cell viability assay.

LS-411N = format: functional, cell-based, Homo sapiens; conditions: Homo sapiens, LS-411N
KM-H2 = format: functional, cell-based, Homo sapiens; conditions: Homo sapiens, KM-H2;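 also: growth inhibition of KM-H2 cells, read out by a cell viability assay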
Description: SANGER: Inhibition of human KM-H2 cell growth in a cell viability assay.

HAL-01 = format: functional, cell-based, Homo sapiens; conditions: Homo sapiens, HAL-01;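 also: growth inhibition of human HAL-01 cells, read out with a cell viability assay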
Description: SANGER: Inhibition of human HAL-01 cell growth in a cell viability assay.

Mo = format: functional, cell-based, Homo sapiens; conditions: Homo sapiens, Mo
Description: SANGER: Inhibition of human Mo-T cell growth in a cell viability assay.

BB49-HNC = format: functional, cell-based, Homo sapiens; conditions: Homo sapiens, BB49-HNC;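 also: cell viability assay read-out, reported as inhibition of BB49-HNC cell growth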
Description: SANGER: Inhibition of human BB49-HNC cell growth in a cell viability assay.

GR-ST = format: functional, cell-based, Homo sapiens; conditions: Homo sapiens, GR-ST
Description: SANGER: Inhibition of human GR-ST cell growth in a cell viability assay.

COLO-824 = format: functional, cell-based, Homo sapiens; conditions: Homo sapiens, COLO-824
Description: SANGER: Inhibition of human COLO-824 cell growth in a cell viability assay.

KLE = format: functional, cell-based, Homo sapiens; conditions: Homo sapiens, KLE;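 also: growth inhibition of human KLE cells, read out with a cell viability assay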
Description: SANGER: Inhibition of human KLE cell growth in a cell viability assay.

HCC 2998 = format: functional, cell-based, Homo sapiens; conditions: Homo sapiens, HCC 2998;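 also: growth inhibition of human HCC2998 cells, measured with a cell viability read-out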
Description: SANGER: Inhibition of human HCC2998 cell growth in a cell viability assay.

A3-KAW = format: functional, cell-based, Homo sapiens; conditions: Homo sapiens, A3-KAW;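 also: growth inhibition of human A3-KAW cells, read out with a cell viability assay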
Description: SANGER: Inhibition of human A3-KAW cell growth in a cell viability assay.

HCC1187 = format: functional, cell-based, Homo sapiens; conditions: Homo sapiens, HCC1187;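 also: growth inhibition of HCC1187 cells, read out with a cell viability assay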
Description: SANGER: Inhibition of human HCC1187 cell growth in a cell viability assay.

ONS-76 = format: functional, cell-based, Homo sapiens; conditions: Homo sapiens, ONS-76;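 also: growth inhibition of human ONS-76 cells, read out with a cell viability assay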
Description: SANGER: Inhibition of human ONS-76 cell growth in a cell viability assay.

LOX IMVI = format: functional, cell-based, Homo sapiens; conditions: Homo sapiens, LOX IMVI
Description: SANGER: Inhibition of human LOXIMVI cell growth in a cell viability assay.

ACN = format: functional, cell-based, Homo sapiens; conditions: Homo sapiens, ACN;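 also: growth inhibition of the human ACN cell line, read out via cell viability testing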
Description: SANGER: Inhibition of human ACN cell growth in a cell viability assay.

TE-9 = format: functional, cell-based, Homo sapiens; conditions: Homo sapiens, TE-9;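 also: cell growth inhibition, measured with a cell viability readout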
Description: SANGER: Inhibition of human TE-9 cell growth in a cell viability assay.

RPMI-8226 = format: functional, cell-based, Homo sapiens; conditions: Homo sapiens, RPMI-8226
Description: SANGER: Inhibition of human RPMI-8226 cell growth in a cell viability assay.

DMS-114 = format: functional, cell-based, Homo sapiens; conditions: Homo sapiens, DMS-114
COR-L88 = format: functional, cell-based, Homo sapiens; conditions: Homo sapiens, COR-L88;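 also: growth inhibition of COR-L88 cells, read out with a cell viability assay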
Description: SANGER: Inhibition of human COR-L88 cell growth in a cell viability assay.

L-428 = format: functional, cell-based, Homo sapiens; conditions: Homo sapiens, L-428
Description: SANGER: Inhibition of human L-428 cell growth in a cell viability assay.

SNU1 = format: functional, cell-based, Homo sapiens; conditions: Homo sapiens, SNU1;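 also: growth inhibition of human NCI-SNU-1 cells, measured with a cell viability assay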
Description: SANGER: Inhibition of human NCI-SNU-1 cell growth in a cell viability assay.

SCH = format: functional, cell-based, Homo sapiens; conditions: Homo sapiens, SCH;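 also: growth inhibition of human SCH cells, read out in a cell viability assay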
Description: SANGER: Inhibition of human SCH cell growth in a cell viability assay.

ES4 = format: functional, cell-based, Homo sapiens; conditions: Homo sapiens, ES4;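 also: growth inhibition of human ES4 cells, read out by a cell viability assay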
Description: SANGER: Inhibition of human ES4 cell growth in a cell viability assay.

NCI-H1299 = format: functional, cell-based, Homo sapiens; conditions: Homo sapiens, NCI-H1299;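 also: growth inhibition of human NCI-H1299 cells, read out by a cell viability assay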
Description: SANGER: Inhibition of human NCI-H1299 cell growth in a cell viability assay.

HCC2218 = format: functional, cell-based, Homo sapiens; conditions: Homo sapiens, HCC2218;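 also: cell viability assay read-out, with IC50 given as the concentration that inhibits growth of the cell line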
Description: SANGER: Inhibition of human HCC2218 cell growth in a cell viability assay.

HT = format: functional, cell-based, Homo sapiens; conditions: Homo sapiens, HT
Description: SANGER: Inhibition of human HT cell growth in a cell viability assay.

In the case of `COc1cc2c(Nc3ccc(NC(=O)c4ccccc4)cc3)ncnc2cc1OCCCN1CCOCC1`, the IC50 (MZ2-MEL) is reported as over 4 µM, the IC50 (HCC2157) is reported as over 4 µM and the IC50 (NCI-H1838) is reported as over 4 µM. For the same compound, the IC50 (SK-MEL-2) was over 4 µM, the IC50 (J-RT3-T3-5) was over 4 µM and the IC50 (SHP77) was over 4 µM. The IC50 (NCI-H2126) was over 4 µM, the IC50 (NCI-N87) was over 4 µM and the IC50 (UACC-257) was over 4 µM. The IC50 (NB12) was over 4 µM, the IC50 (SJSA-1) was over 4 µM and the IC50 (SK-UT-1) was 1.82 µM. It also gave an IC50 (SH-4) of over 4 µM, an IC50 (DJM-1) of over 4 µM and an IC50 (SBC-1) of 1.04 µM. For the same compound, the IC50 (A101D) was over 4 µM, the IC50 (MFM-223) was over 4 µM and the IC50 (SW 962) was over 4 µM. The IC50 (LB831-BLC) was over 4 µM, the IC50 (A4-Fuk) was 3.77 µM and the IC50 (NCI-H1770) was over 4 µM. It also gave an IC50 (AM-38) of over 4 µM, an IC50 (LS-411N) of over 4 µM and an IC50 (KM-H2) of over 4 µM. For the same compound, the IC50 (HAL-01) was over 4 µM, the IC50 (Mo) was over 4 µM and the IC50 (BB49-HNC) was over 4 µM. For the same compound, the IC50 (GR-ST) was over 4 µM, the IC50 (COLO-824) was over 4 µM and the IC50 (KLE) was over 4 µM. The IC50 (HCC 2998) was over 4 µM, the IC50 (A3-KAW) was over 4 µM and the IC50 (HCC1187) was over 4 µM. It also gave an IC50 (ONS-76) of over 4 µM, an IC50 (LOX IMVI) of over 4 µM and an IC50 (ACN) of over 4 µM. For the same compound, the IC50 (TE-9) was over 4 µM, the IC50 (RPMI-8226) was over 4 µM and the IC50 (DMS-114) was over 4 µM. It also gave an IC50 (COR-L88) of over 4 µM, an IC50 (L-428) of over 4 µM and an IC50 (SNU1) of 3.11 µM. It also gave an IC50 (SCH) of over 4 µM, an IC50 (ES4) of over 4 µM and an IC50 (NCI-H1299) of over 4 µM. For the same compound, the IC50 (HCC2218) was over 4 µM and the IC50 (HT) was over 4 µM.

In the case of `CC1(C)CNc2cc(NC(=O)c3cccnc3NCc3ccncc3)ccc21` [MOTESANIB], the IC50 (MZ2-MEL) is reported as over 2 µM, the IC50 (HCC2157) is reported as over 2 µM and the IC50 (NCI-H1838) is reported as over 2 µM. It also gave an IC50 (SK-MEL-2) of over 2 µM, an IC50 (J-RT3-T3-5) of over 2 µM and an IC50 (SHP77) of over 2 µM. For the same compound, the IC50 (NCI-H2126) was over 2 µM, the IC50 (NCI-N87) was over 2 µM and the IC50 (UACC-257) was over 2 µM. For the same compound, the IC50 (NB12) was over 2 µM, the IC50 (SJSA-1) was over 2 µM and the IC50 (SK-UT-1) was over 2 µM. For the same compound, the IC50 (SH-4) was over 2 µM, the IC50 (DJM-1) was over 2 µM and the IC50 (SBC-1) was over 2 µM. For the same compound, the IC50 (A101D) was over 2 µM, the IC50 (MFM-223) was over 2 µM and the IC50 (SW 962) was over 2 µM. For the same compound, the IC50 (LB831-BLC) was over 2 µM, the IC50 (A4-Fuk) was over 2 µM and the IC50 (NCI-H1770) was over 2 µM. The IC50 (AM-38) was over 2 µM, the IC50 (LS-411N) was over 2 µM and the IC50 (KM-H2) was over 2 µM. For the same compound, the IC50 (HAL-01) was over 2 µM, the IC50 (Mo) was over 2 µM and the IC50 (BB49-HNC) was over 2 µM. The IC50 (GR-ST) was over 2 µM, the IC50 (COLO-824) was over 2 µM and the IC50 (KLE) was over 2 µM. The IC50 (HCC 2998) was over 2 µM, the IC50 (A3-KAW) was over 2 µM and the IC50 (HCC1187) was over 2 µM. It also gave an IC50 (ONS-76) of over 2 µM, an IC50 (LOX IMVI) of over 2 µM and an IC50 (ACN) of over 2 µM. It also gave an IC50 (TE-9) of over 2 µM, an IC50 (RPMI-8226) of over 2 µM and an IC50 (DMS-114) of over 2 µM. The IC50 (COR-L88) was over 2 µM, the IC50 (L-428) was over 2 µM and the IC50 (SNU1) was over 2 µM. It also gave an IC50 (SCH) of over 2 µM, an IC50 (ES4) of over 2 µM and an IC50 (NCI-H1299) of over 2 µM. For the same compound, the IC50 (HCC2218) was over 2 µM and the IC50 (HT) was over 2 µM.
